Assay results: the NIST ThermoML archive (doi:10.1016/j.jct.2012.09.026)
Numbers after ± are expanded uncertainties.

Key:
[1] = Liquid, Vibrating tube method
[2] = xn = mol fraction of the nth substance listed; details: Liquid, x2 = 0

`CC(C)(C)O` [2-methylpropan-2-ol] gave a mass density ([1]; 308.15 K, 101.3 kPa) of 770.14 ± 1 kg/m3, a mass density ([1]; 323.15 K, 101.3 kPa) of 753.94 ± 1 kg/m3 and a mass density ([1]; 323.15 K, 10000 kPa) of 764.58 ± 1 kg/m3. The mass density ([1]; 323.15 K, 25000 kPa) was 778.73 ± 1.1 kg/m3, the mass density ([1]; 323.15 K, 50000 kPa) was 798.2 ± 1.1 kg/m3 and the mass density ([1]; 323.15 K, 75000 kPa) was 813.79 ± 1.2 kg/m3. It also gave a mass density ([1]; 323.15 K, 100000 kPa) of 827.34 ± 1.3 kg/m3.

`O` [water] gave a mass density ([1]; 278.15 K, 101.3 kPa) of 999.96 ± 1 kg/m3, a mass density ([1]; 278.15 K, 10000 kPa) of 1004.77 ± 1 kg/m3 and a mass density ([1]; 278.15 K, 25000 kPa) of 1011.88 ± 1.1 kg/m3. The mass density ([1]; 278.15 K, 50000 kPa) was 1023.2 ± 1.1 kg/m3, the mass density ([1]; 278.15 K, 75000 kPa) was 1033.91 ± 1.2 kg/m3 and the mass density ([1]; 278.15 K, 100000 kPa) was 1044.08 ± 1.3 kg/m3. It also gave a mass density ([1]; 288.15 K, 10000 kPa) of 1003.67 ± 1 kg/m3, a mass density ([1]; 288.15 K, 25000 kPa) of 1010.42 ± 1.1 kg/m3 and a mass density ([1]; 288.15 K, 50000 kPa) of 1021.21 ± 1.1 kg/m3. It also gave a mass density ([1]; 288.15 K, 75000 kPa) of 1031.47 ± 1.2 kg/m3, a mass density ([1]; 288.15 K, 100000 kPa) of 1041.23 ± 1.3 kg/m3 and a mass density ([1]; 298.15 K, 10000 kPa) of 1001.47 ± 1 kg/m3. For the same compound, the mass density ([1]; 298.15 K, 25000 kPa) was 1007.99 ± 1.1 kg/m3, the mass density ([1]; 298.15 K, 50000 kPa) was 1018.44 ± 1.1 kg/m3 and the mass density ([1]; 298.15 K, 75000 kPa) was 1028.37 ± 1.2 kg/m3. For the same compound, the mass density ([1]; 298.15 K, 100000 kPa) was 1037.86 ± 1.3 kg/m3, the mass density ([1]; 308.15 K, 10000 kPa) was 998.36 ± 1 kg/m3 and the mass density ([1]; 308.15 K, 25000 kPa) was 1004.75 ± 1.1 kg/m3. The mass density ([1]; 308.15 K, 50000 kPa) was 1014.97 ± 1.1 kg/m3, the mass density ([1]; 308.15 K, 75000 kPa) was 1024.71 ± 1.2 kg/m3 and the mass density ([1]; 308.15 K, 100000 kPa) was 1034 ± 1.3 kg/m3. It also gave a mass density ([1]; 323.15 K, 101.3 kPa) of 988.03 ± 1 kg/m3, a mass density ([1]; 323.15 K, 10000 kPa) of 992.31 ± 1 kg/m3 and a mass density ([1]; 323.15 K, 25000 kPa) of 998.61 ± 1.1 kg/m3. It also gave a mass density ([1]; 323.15 K, 50000 kPa) of 1008.68 ± 1.1 kg/m3, a mass density ([1]; 323.15 K, 75000 kPa) of 1018.27 ± 1.2 kg/m3 and a mass density ([1]; 323.15 K, 100000 kPa) of 1027.42 ± 1.3 kg/m3.

In the case of `O` [water] + CC(C)(C)O, the mass density ([2]; 278.15 K, 101.3 kPa, Vibrating tube method) is reported as 999.96 ± 1 kg/m3, the mass density ([2]; 278.15 K, 10000 kPa, Constant-volume piezometry) is reported as 1004.77 ± 1 kg/m3 and the mass density ([2]; 278.15 K, 25000 kPa, Constant-volume piezometry) is reported as 1011.88 ± 1.1 kg/m3. For the same compound, the mass density ([2]; 278.15 K, 50000 kPa, Constant-volume piezometry) was 1023.2 ± 1.1 kg/m3, the mass density ([2]; 278.15 K, 75000 kPa, Constant-volume piezometry) was 1033.91 ± 1.2 kg/m3 and the mass density ([2]; 278.15 K, 100000 kPa, Constant-volume piezometry) was 1044.08 ± 1.3 kg/m3. It also gave a mass density ([2]; 288.15 K, 10000 kPa, Constant-volume piezometry) of 1003.67 ± 1 kg/m3, a mass density ([2]; 288.15 K, 25000 kPa, Constant-volume piezometry) of 1010.42 ± 1.1 kg/m3 and a mass density ([2]; 288.15 K, 50000 kPa, Constant-volume piezometry) of 1021.21 ± 1.1 kg/m3. The mass density ([2]; 288.15 K, 75000 kPa, Constant-volume piezometry) was 1031.47 ± 1.2 kg/m3, the mass density ([2]; 288.15 K, 100000 kPa, Constant-volume piezometry) was 1041.23 ± 1.3 kg/m3 and the mass density ([2]; 298.15 K, 10000 kPa, Constant-volume piezometry) was 1001.47 ± 1 kg/m3. It also gave a mass density ([2]; 298.15 K, 25000 kPa, Constant-volume piezometry) of 1007.99 ± 1.1 kg/m3, a mass density ([2]; 298.15 K, 50000 kPa, Constant-volume piezometry) of 1018.44 ± 1.1 kg/m3 and a mass density ([2]; 298.15 K, 75000 kPa, Constant-volume piezometry) of 1028.37 ± 1.2 kg/m3. The mass density ([2]; 298.15 K, 100000 kPa, Constant-volume piezometry) was 1037.86 ± 1.3 kg/m3, the mass density ([2]; 308.15 K, 10000 kPa, Constant-volume piezometry) was 998.36 ± 1 kg/m3 and the mass density ([2]; 308.15 K, 25000 kPa, Constant-volume piezometry) was 1004.75 ± 1.1 kg/m3. The mass density ([2]; 308.15 K, 50000 kPa, Constant-volume piezometry) was 1014.97 ± 1.1 kg/m3, the mass density ([2]; 308.15 K, 75000 kPa, Constant-volume piezometry) was 1024.71 ± 1.2 kg/m3 and the mass density ([2]; 308.15 K, 100000 kPa, Constant-volume piezometry) was 1034 ± 1.3 kg/m3. The mass density ([2]; 323.15 K, 101.3 kPa, Vibrating tube method) was 988.03 ± 1 kg/m3, the mass density ([2]; 323.15 K, 10000 kPa, Constant-volume piezometry) was 992.31 ± 1 kg/m3 and the mass density ([2]; 323.15 K, 25000 kPa, Constant-volume piezometry) was 998.61 ± 1.1 kg/m3. It also gave a mass density ([2]; 323.15 K, 50000 kPa, Constant-volume piezometry) of 1008.68 ± 1.1 kg/m3, a mass density ([2]; 323.15 K, 75000 kPa, Constant-volume piezometry) of 1018.27 ± 1.2 kg/m3 and a mass density ([2]; 323.15 K, 100000 kPa, Constant-volume piezometry) of 1027.42 ± 1.3 kg/m3.
